Results published in publication PMC3863386 (Journal of the American Chemical Society, 2013).
Where two headings read alike, the source gives them in different places.

Experiments:
[1] = target: C-LsrR K288A (Escherichia coli, UniProt P76141, K288A); conditions: compared to wild type C-LsrR
[2] = target: C-LsrR T220A (Escherichia coli, UniProt P76141, T220A); conditions: compared to wild type C-LsrR
[3] = target: C-LsrR D243A (Escherichia coli, UniProt P76141, D243A); conditions: compared to wild type C-LsrR
[4] = target: C-LsrR Q215A (Escherichia coli, UniProt P76141, Q215A); conditions: compared to wild type C-LsrR
[5] = target: T1, LsrR (Escherichia coli, UniProt P76141); conditions: for ΔH / ΔS: ITC titration of LsrR
[6] = test system: LsrR; conditions: cited from earlier work
[7] = target: T1, LsrR; conditions: compared to LsrR alone
[8] = target: C-LsrR (Escherichia coli, UniProt P76141); assay: biochemical; conditions: LsrR-binding affinity (Kd), approximate, rounded summary value
[9] = test system: QS signaling in E. coli; conditions: after in vivo phosphorylation by LsrK; cited from earlier work
[10] = test system: QS signaling in S. typhimurium; conditions: after in vivo phosphorylation by LsrK; cited from earlier work
[11] = test system: E. coli biofilms; conditions: simultaneous treatment with the antibiotic gentamicin; cited from earlier work

T1 sequence (P76141 whole entry): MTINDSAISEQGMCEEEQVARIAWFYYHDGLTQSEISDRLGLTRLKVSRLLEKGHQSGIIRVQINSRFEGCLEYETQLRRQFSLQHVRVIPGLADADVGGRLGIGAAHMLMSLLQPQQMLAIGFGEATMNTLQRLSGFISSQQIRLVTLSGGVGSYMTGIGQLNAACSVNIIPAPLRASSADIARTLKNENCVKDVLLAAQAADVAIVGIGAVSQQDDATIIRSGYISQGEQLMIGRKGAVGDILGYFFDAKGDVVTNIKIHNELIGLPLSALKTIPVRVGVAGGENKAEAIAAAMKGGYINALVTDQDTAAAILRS
C-LsrR, sequence (P76141 53-317): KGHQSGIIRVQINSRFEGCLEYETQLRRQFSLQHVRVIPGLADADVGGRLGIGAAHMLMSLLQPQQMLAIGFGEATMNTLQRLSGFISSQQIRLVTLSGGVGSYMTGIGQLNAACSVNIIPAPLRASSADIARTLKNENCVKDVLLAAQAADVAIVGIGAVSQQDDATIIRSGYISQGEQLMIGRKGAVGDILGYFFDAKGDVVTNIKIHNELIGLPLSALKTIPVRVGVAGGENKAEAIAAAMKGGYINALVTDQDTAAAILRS
C-LsrR K288A, sequence (P76141 53-317 K288A): as the sequence (P76141 53-317) above, with K236A counted along it
C-LsrR Q215A, sequence (P76141 53-317 Q215A): as the sequence (P76141 53-317) above, with Q163A counted along it
C-LsrR D243A, sequence (P76141 53-317 D243A): as the sequence (P76141 53-317) above, with D191A counted along it
C-LsrR T220A, sequence (P76141 53-317 T220A): as the sequence (P76141 53-317) above, with T168A counted along it

With `CC(=O)C(=O)[C@@H](O)COP(=O)(O)O` [D5P, phospho-DPD] as the compound, how does the “Effect of K288A mutation on D5P binding affinity” value [1] read?
The value was “less affinity for D5P than the wild type”.

And the “Effect of T220A mutation on D5P binding affinity” value [2]?
The value was “significant decrease of the binding affinity”.

What about the “Effect of D243A mutation on D5P binding affinity” value [3] of the same compound?
Its value is “less affinity for D5P than the wild type”.

And the “Effect of Q215A mutation on D5P binding affinity” value [4]?
The value was “moderate”.

And the ΔH ([5]; 20°C)?
Its ΔH is 0.98 kcal/mol.

What about the ΔS ([5]; 20°C) of the same compound?
The ΔS was 23.0 cal/mol/K.

What about the Kd ([5]; read-out: Kd of LsrR (ITC), ITC, 20°C, one-site binding model) of the same compound?
Its Kd is 1.78 ± 0.13 µM.

What about the Kd ([5]; read-out: LsrR-binding affinity (Kd), approximate, rounded summary value) of the same compound?
Its Kd is ~2 µM.

And the Agonist or antagonist [6]?
Its Agonist or antagonist is “agonists”.

And the “Change of the DLS size distribution of LsrR on addition of ligand” value (shortened to “Change”) [7]?
The value was “clearly changed the DLS pattern of LsrR”.

With `CCC(=O)C(=O)[C@@H](O)COP(=O)(O)O` [D6P, phospho-ethyl-DPD] as the compound, how does the Agonist or antagonist [6] read?
The Agonist or antagonist was “agonists”.

With `CCCC(=O)C(=O)C(O)COP(=O)(O)O` (stereo not shown) [D7P, phospho-propyl-DPD] as the compound, how does the Agonist or antagonist [6] read?
Its Agonist or antagonist is “antagonist”.

Which “Change” value [7] does the source give for `O=C[C@H](O)[C@H](O)[C@H](O)COP(=O)(O)O` [R5P, D-ribose 5-phosphate] here?
The value was “did not show any apparent changes in the size distribution”.

And the Kd [8]?
Its Kd is ~1000 µM.

With `CC(C)CC(=O)C(=O)[C@@H](O)CO` [isobutyl-DPD] as the compound, how does the “Effect on QS signaling” value [9] read?
The value was “attenuated QS signaling”.

And the “Effect on QS signaling” value [10]?
Its value is “attenuated QS signaling”.

And the Effect on biofilms [11]?
The Effect on biofilms was “dramatically reduced biofilm formation and cleared extant biofilms”.

For phospho-isobutyl DPD [D8P], which ΔH ([5]; 20°C) is on record?
Its ΔH is 5.3 kcal/mol.

And the ΔS ([5]; 20°C)?
Its ΔS is 11.2 cal/mol/K.

What about the Agonist or antagonist [6] of the same compound?
The Agonist or antagonist was “antagonist”.

What about the “Inhibition of LsrR / QS signal transduction” value [6] of the same compound?
The value was “very potent inhibitor”.

What about the “Change” value [7] of the same compound?
Its value is “did not show any apparent changes in the size distribution”.
